Measured values: PMC9122913 (Nature Communications, 2022)

Target: T1, Cyclin-dependent kinase 2 (CDK2) (Homo sapiens, UniProt P24941)
T1 construct: Full-length human CDK2, GST-N-terminal tagged fusion protein
Test: pulldown of purified GST-CDK2 with HHT-conjugated beads (free HHT competes in lysate pulldown); DARTS in HEK293 lysate; CDK2/Cyclin A2 kinase assay inhibited at […] HHT
Type: binding
Excerpt: Thus, hydrogen-bonds with T47, R50 and R150 appear critical

SMILES: COC(=O)C[C@](O)(CCCC(C)(C)O)C(=O)O[C@@H]1C(OC)=C[C@]23CCCN2CCc2cc4c(cc2[C@H]13)OCO4 [HHT, homoharringtonine]
- pulldown of purified GST-CDK2 with HHT-conjugated beads (free HHT competes in ly): interaction between HHT and CDK2-3As was abolished (Fig. 1G). Thus, hydrogen-bonds with T47, R50 and R150 appear critical
